The record followed here is patent publication US6121279A, “Substituted 6-phenylphenanthridines” (Byk Gulden Lomberg Chemische Fabrik GmbH, priority 1997, dated 2000).

The test system of the test is PDE 4. Put plainly: Inhibition of PDE 4 activity (method of Bauer and Schwabe, adapted to microtiter plates). Type of test: biochemical. The settings on record: Table A.
Turning to `CCOc1cc2c(cc1OC)C(c1ccc(C(=O)Nc3cccnc3)cc1)=NC1CCCCC21` (mixture of isomers) [Compound 6, (+/-)-cis-9-Ethoxy-8-methoxy-6-(4-pyrid-3-ylamidophenyl)-1,2,3,4,4a,10b-hexahydrophenanthridine], the “inhibitory concentration as -log IC50 (mol/l), Inhibition of PDE 4 activity” value was found to be 8.66. The value for `CCOc1cc2c(cc1OC)C(c1ccc(S(N)(=O)=O)cc1)=N[C@H]1CCCC[C@@H]21` (racemic) [Compound 1, (+-)-cis-9-Ethoxy-8-methoxy-6-(4-sulfamoylphenyl)-1,2,3,4,4a,10b-hexahydrophenanthridine] was 8.55. As to `COc1cc2c(cc1OC)[C@@H]1CCCC[C@@H]1N=C2c1ccc(S(=O)(=O)Nc2ccc(C)cc2)cc1` (single isomer, unassigned) [Compound 5, (-)-cis-8,9-Dimethoxy-6-(4-p-tolylsulfamoylphenyl)-1,2,3,4,4a,10b-hexahydrophenanthridine], the “inhibitory concentration as -log IC50 (mol/l), Inhibition of PDE 4 activity” value is listed as 8.30. The value for `CCCN(CCC)S(=O)(=O)c1ccc(C2=N[C@H]3CCCC[C@H]3c3cc(OCC)c(OC)cc32)cc1` (racemic) [Compound 2, (+/-)-cis-9-Ethoxy-8-methoxy-6-(4-dipropylsulfamoylphenyl)-1,2,3,4,4a,10b-hexahydrophenanthridine] was 9.25; that for `CCOc1cc2c(cc1OC)C(c1ccc(S(=O)(=O)Nc3ccc(C)cc3)cc1)=N[C@H]1CCCC[C@@H]21` (racemic) [Compound 3, (+/-)-cis-9-Ethoxy-8-methoxy-6-(4-p-tolylsulfamoylphenyl)-1,2,3,4,4a,10b-hexahydrophenanthridine] was 9.24.
